One data set relates to UNG−/− MEFs. Particulars: treated UNG−/− MEFs; cited from earlier work.
The next data set concerns H1975 66 shUNG cells. In words: Colony survival assay, H1975 66 shUNG cells. It counts as cell-based, human. On the procedure: (§1) For cells in suspension, colony survival was determined by crystal violet staining of colonies formed after 10-day exposure of 5×10^3 cells to pemetrexed in soft agar. For adherent cells, colony survival was determined by methylene blue staining of colonies formed after 10-day exposure of 100 cells to pemetrexed in 6-well culture dishes. Only colonies containing ≥50 cells were counted. Data points represent percent of colonies relative to untreated control averaged over 3 experiments.
UNG directed shRNA and siRNA plasmids were purchased from Origene. Transfection was carried out according to manufacturer specifications. Stably transfected clones (shRNA) were selected with puromycin with subsequent expansion of a well-isolated colony of cells.

For a further data set, the system named is DLD1/UDG−/− cells. In words: Colony survival (clonogenic) assay, UDG−/− cells. The following applies: 5-FU 0-20 μM, temozolomide 0-1500 μM, cisplatin 0-40 μM. It counts as cell-based, human. As to the method:
Recombinant virus was grown in 293T cells and subsequently used to infect DLD1 cells. Selection of positively transfected clones was achieved by the addition of G418 to the culture medium. A second infection of transfected clones with Cre-recombinase adenovirus caused excision of the neomycin resistance cassette. Dflag cell line was produced by transfection of UDG expression vector in UDG^−/− cells to restore UDG activity.
Tumor cells (500-2000/dish) were plated and treated with pemetrexed (0-400 nM), 5-fluorouracil (0-20 μM), temozolomide (0-1500 μM), or cisplatin (0-40 μM). After 7 days, surviving colonies were stained with methylene blue for 30 min at room temperature and the colonies containing more than 50 cells were counted to generate survival curves.

Another data set deals with H1299/PR-1 cells. The data set is described as follows: Colony survival assay, H1299/PR-1 pemetrexed-resistant subline. The class given is cell-based, human. The following applies: PR-1 and PR-2 cells. On the procedure: as §1
H1299 cells were exposed to step-wise increasing concentrations of pemetrexed over a period of 4 months. UNG expression was monitored in the bulk population at 2, 8, 12 and 16 weeks prior to administration of the induction dosage and at 24 weeks in a population of bulk chronically exposed cells that had been without pemetrexed for 8 weeks. H1299 cells capable of growth in 50 nM pemetrexed selection pressure were subcloned by limiting dilution in 96 well plates. Independent sublines were designated H1299/PR-1 and H1299/PR-2.

The test system of data set [1] is uracil in DNA of UDG−/− cells. In words: Uracil in DNA by HPLC/MS/MS, UDG−/− cells. The class given is cell-based, human. The following applies: UDG−/− cells; drug 10 μM, 6-72 hr. As to the method: UDG^−/− and UDG^+/+ cells were exposed to pemetrexed (10 μM) or 5-fluorouracil (10 μM) for 6, 24, 48 and 72 hrs. At indicated time points, cells were harvested and genomic DNA was extracted by phenol/chloroform. Forty μg of DNA were incubated with 10 U of purified UDG (New England Biolabs) in 60 μL of reaction buffer at 37° C. for 2 hrs. The reaction products were dried at 35° C. in a Turbovap under a stream of nitrogen and reconstituted in 150 μL 90% acetonitrile. The analyte was retained by an Atlantis Hilis Silica analytical column (2.1×100 mm, 3.5 μM) and eluted isocratically by a mixture of 90% acetonitrile and 10% 2.0 mM ammonium formate at a flow rate of 0.2 ml/min. The detection was done by an API 3200 MS/MS mass spectrometer.

A further data set relates to cell culture. The data set is described as follows: Tolerance of MX in cell culture. It counts as cell-based. Particulars: MX at 3 mM.
Data set [2] concerns 293t cells expressing the bacteriophage UNG inhibitor Ugi. The following applies: treated 293t cells expressing Ugi; cited from earlier work.

In the case of `O=c1[nH]cc(F)c(=O)[nH]1` [5-FU, 5-fluorouracil], the increase in uracil in the data set with UNG−/− MEFs is 1.5 fold. For the same compound, the “cross sensitivity of UNG deficient H1975 cells” value (from here on “cross sensitivity”) in the data set with H1975 66 shUNG cells is “some cross sensitivity”. Also, the “differential sensitivity of UDG−/− vs UDG+/+ cells” value with DLD1/UDG−/− cells is listed as “more sensitive”. Moreover, the “cross-resistance of PR-1 and PR-2 cells” value in the data set on H1299/PR-1 cells was “cross-resistance”. Besides, the “uracil detected in DNA” value in data set [1] is recorded as “greater retention of uracil”.

`O=c1[nH]c(=O)n([C@H]2C[C@H](O)[C@@H](CO)O2)cc1F` [FdUrd]: in the data set with UNG−/− MEFs, the increase in uracil is reported as 1.5 fold.

As to `CON` [MX, methoxyamine], the “tolerance in cell culture” value with cell culture is recorded as “well tolerated”.

As for `N.N.[Cl][Pt][Cl]` [cisplatin], the “cross sensitivity” value in the data set with H1975 66 shUNG cells is reported as “not”. The “differential sensitivity of UDG−/− vs UDG+/+ cells” value with DLD1/UDG−/− cells was “no significant differential sensitivity”. The “cross-resistance of PR-1 and PR-2 cells” value in the data set with H1299/PR-1 cells is “not resistant”.

Consider `Cc1nc2ccc(CN(C)c3ccc(C(=O)N[C@@H](CCC(=O)O)C(=O)O)s3)cc2c(=O)[nH]1` [raltitrexed], for which the “cross sensitivity” value in the data set on H1975 66 shUNG cells is listed as “some cross sensitivity”. The increase in uracil in data set [2] was 8 fold. The “cross-resistance of PR-1 and PR-2 cells” value in the data set on H1299/PR-1 cells was “cross-resistance”.

On to `Cc1cn([C@H]2C[C@H](O)[C@@H](CO)O2)c(=O)[nH]c1=O` [thymidine], for which the “effect of supplemental thymidine on pemetrexed sensitivity” value in the data set on H1975 66 shUNG cells (H1975 shUNG cells, 10 μM thymidine) is “rescued pemetrexed sensitivity”.

The record behind these values is patent publication US10725042B2, “Methods of diagnosing and treating cancer” (Case Western Reserve University, priority 2012, dated 2020).
